In patent publication US8912169B2, “Beta-lactamase inhibitors” (VenatoRx Pharmaceuticals, Inc., priority 2012, dated 2014):

Tests used:
Assay type in all cases: biochemical
[1] = molecular target: T1, VIM-2 (Escherichia coli, UniProt Q5U7L7); experiment: β-lactamase enzyme inhibition, VIM-2; settings: substrate Nitrocefin 100 μM, 486 nm; read-out: Class B VIM-2 IC50
T1 construct: made in house; host or cells: E. coli BL21(DE3)
Experimental: For Vim-2 metallo β-lactamase, the procedure was identical with the following exceptions, first the protein was not pH adjusted to pH 5 with 50 mM sodium acetate, second, the chromatography step was changed to a 5 ml Q sepharose anion exchange column pre-equilibrated with 50 mM Hepes pH 7.5, and elution of the protein was achieved by a linear gradient of NaCl (0-600 mM). Finally, the VIM-2 purification required a second run (3rd step) on the Q sepharose anion exchange column to achieve acceptable purity (>90%).
(§1) An equal volume of diluted enzyme stock was added, and the plates were incubated at 37° C. for 15 min. Nitrocefin was used as substrate for p99 AmpC, VIM-2 and OXA-1 and dispensed into each well at a final concentration of 100 μM. Absorbance at 486 nm was immediately monitored for 10 min using a Biotek Powerwave XS2 microplate spectrophotometer using the GENS software package (Biotek Instruments, Winooski Vt.). In an analogous fashion, imipenem was used as substrate for Kpc-2 and Cefotaxime was used for SHV-5, while changes in absorbance upon hydrolysis of the β-lactam ring were monitored at 300 nm and 260 nm respectively in UV-transparent 96-well microtiter assay plates. Maximum rates of hydrolysis were compared to those in control wells (without inhibitors), and percentages of enzyme inhibition were calculated for each concentration of inhibitor. The concentration of inhibitor needed to reduce the initial rate of hydrolysis of substrate by 50% (IC50) was calculated as the residual activity of β-lactamase at 486 nm using GraFit version 7 kinetics software package (Erithacus Software, Surrey, UK).
(§2) Using the methodology described above, examples of the current invention were evaluated for their ability to inhibit β-lactamase enzymes from all four Ambler classifications (A through D). […] NT=Not tested.

[2] = molecular target: T2, OXA-1 (Escherichia coli, UniProt P13661); experiment: β-lactamase enzyme inhibition, OXA-1; settings: substrate Nitrocefin 100 μM, 486 nm; read-out: Class D OXA-1 IC50
T2 construct: made in house; host or cells: E. coli BL21(DE3)
Experimental: (§3) For SHV-5, Kpc-2, p99AmpC and OXA-1 β-lactamases, E. coli BL21(DE3) bacterial cells carrying expression plasmids (expressed as native untagged proteins) for the individual β-lactamases were grown in 1 L of Superbroth (Teknova Inc. Hollister, Calif.) supplemented with 100 μg/mlkanamycin selection and 1×5052 (0.5% glycerol, 0.05% glucose and 0.2% α-lactose) at 35° C. for 18-20 hours. Cells were harvested by centrifugation (4,000×g, 4° C., 20 min), resuspended in 50 ml of 10 mM HEPES pH 7.5 ( 1/20 of the initial volume). The cells were lysed by sonication (5 pulses of 45 seconds) at 45 W on ice. The lysates were clarified by centrifugation at 10,000×g for 40 minutes at 4° C. Samples were diluted 5-fold in 50 mM sodium acetate pH 5.0, stored overnight at 4° C., after which they were centrifuged at 10,000×g for 30 minutes to clarify, and filtered through 0.45 μm filters. The samples were loaded onto a 5 ml Capto S sepharose cation exchange column (GE Healthcare) pre-equilibrated with 50 mM sodium acetate pH 5.0. The column was washed with 5 column volumes of 50 mM sodium acetate pH 5.0 to wash out unbound protein and a linear gradient of NaCl (0 to 500 mM) was used to elute the protein (over 16 CV) from the column. Fractions were assayed for β-lactamase activity using Centa (Calbiochem, Gibbstown, N.J.) or Nitrocefin (EMD Millipore chemicals, Darmstadt, Germany) as a reporter β-lactamase substrate for activity in the isolated fractions. Active fractions were pooled, concentrated and further purified by gel filtration chromatography on a Superdex 75 prep grade gel filtration column (GE Healthcare, Piscataway, N.J.) pre-equilibrated in 50 mM Hepes pH 7.5, 150 mM NaCl. Active fractions were pooled concentrated, quantitated by BCA protein determination (Thermo Scientific, Rockford, Ill.), dialyzed into PBS and frozen at −80° C. in 20% glycerol until use.
as §1, §2

[3] = molecular target: T3, p99 AmpC (Enterobacter cloacae, UniProt P05364); experiment: β-lactamase enzyme inhibition, p99 AmpC
T3 construct: made in house; host or cells: E. coli BL21(DE3)
Experimental: as §3, §1, §2

[4] = molecular target: T4, KPC-2 (Klebsiella pneumoniae, UniProt Q9F663); experiment: β-lactamase enzyme inhibition, KPC-2; settings: substrate imipenem, 300 nm; read-out: Class A KPC-2 IC50
T4 construct: made in house; host or cells: E. coli BL21(DE3)
Experimental: as §3, §1, §2

[5] = molecular target: T5, SHV-5 (Klebsiella pneumoniae, UniProt P0A3M1); experiment: β-lactamase enzyme inhibition, SHV-5
T5 construct: made in house; host or cells: E. coli BL21(DE3)
Experimental: as §3, §1, §2

| Structure (SMILES) | IC50 [1] [nM] | IC50 [2] [nM] | IC50 [3] [nM] | IC50 [4] [nM] | IC50 [5] [nM] |
| --- | --- | --- | --- | --- | --- |
| CN(C)[C@H]1CC[C@H](CC(=O)N[C@H]2Cc3cccc(C(=O)O)c3OB2O)CC1 [Example 14, (R)-3-(2-(trans-4-(dimethylamino)cyclohexyl)acetamido)-2-hydroxy-3,4-dihydro-2H-benzo[e][1,2]oxaborinine-8-carboxylic acid] | 100 to 1000 | < 100 | < 100 | < 100 | < 100 |
| NCCN[C@H]1CC[C@H](CC(=O)N[C@H]2Cc3cccc(C(=O)O)c3OB2O)CC1 [Example 15, (R)-3-(2-(trans-4-(2-aminoethylamino)cyclohexyl)acetamido)-2-hydroxy-3,4-dihydro-2H-benzo[e][1,2]oxaborinine-8-carboxylic acid] | < 100 | 100 to 1000 | < 100 | < 100 | < 100 |
| O=C(C[C@H]1CC[C@H](N2CCNCC2)CC1)N[C@H]1Cc2cccc(C(=O)O)c2OB1O [Example 16, (R)-2-hydroxy-3-(2-(trans-4-(piperazin-1-yl)cyclohexyl)acetamido)-3,4-dihydro-2H-benzo[e][1,2]oxaborinine-8-carboxylic acid] | 1000 to 10000 | < 100 | < 100 | < 100 | < 100 |
| O=C(C[C@H]1CC[C@@H](N2CCNCC2)CC1)N[C@H]1Cc2cccc(C(=O)O)c2OB1O [Example 17, (R)-2-hydroxy-3-(2-(cis-4-(piperazin-1-yl)cyclohexyl)acetamido)-3,4-dihydro-2H-benzo[e][1,2]oxaborinine-8-carboxylic acid] | 1000 to 10000 | 100 to 1000 | < 100 | < 100 | 100 to 1000 |
| N[C@H]1CC[C@H](CCC(=O)N[C@H]2Cc3cccc(C(=O)O)c3OB2O)CC1 [Example 21, (R)-3-(3-(trans-4-aminocyclohexyl)propanamido)-2-hydroxy-3,4-dihydro-2H-benzo[e][1,2]oxaborinine-8-carboxylic acid] | 1000 to 10000 | < 100 | < 100 | < 100 | < 100 |
| N=C(N)N[C@H]1CC[C@H](CCC(=O)N[C@H]2Cc3cccc(C(=O)O)c3OB2O)CC1 [Example 22, (R)-3-(3-(trans-4-guanidinocyclohexyl)propanamido)-2-hydroxy-3,4-dihydro-2H-benzo[e][1,2]oxaborinine-8-carboxylic acid] | 100 to 1000 | < 100 | < 100 | < 100 | < 100 |
| CN(C)CCN(C)[C@H]1CC[C@H](CC(=O)N[C@H]2Cc3cccc(C(=O)O)c3OB2O)CC1 [Example 23, (R)-3-(2-(trans-4-((2-(dimethylamino)ethyl)(methyl)amino)cyclohexyl)acetamido)-2-hydroxy-3,4-dihydro-2H-benzo[e][1,2]oxaborinine-8-carboxylic acid] | 100 to 1000 | 100 to 1000 | < 100 | < 100 | < 100 |
| N=C(N)NCCN[C@H]1CC[C@H](CC(=O)N[C@H]2Cc3cccc(C(=O)O)c3OB2O)CC1 [Example 25, (R)-3-(2-(trans-4-(2-guanidinoethylamino)cyclohexyl)acetamido)-2-hydroxy-3,4-dihydro-2H-benzo[e][1,2]oxaborinine-8-carboxylic acid] | < 100 | < 100 | < 100 | < 100 | < 100 |
| O=C(C[C@H]1CC[C@H](NCCO)CC1)N[C@H]1Cc2cccc(C(=O)O)c2OB1O [Example 26, (R)-2-hydroxy-3-(2-(trans-4-(2-hydroxyethylamino)cyclohexyl)acetamido)-3,4-dihydro-2H-benzo[e][1,2]oxaborinine-8-carboxylic acid] | 1000 to 10000 | 100 to 1000 | < 100 | < 100 | < 100 |
| O=C(C[C@H]1CC[C@H](NCc2cccnc2)CC1)N[C@H]1Cc2cccc(C(=O)O)c2OB1O [Example 27, (R)-2-hydroxy-3-(2-(trans-4-(pyridin-3-ylmethylamino)cyclohexyl)acetamido)-3,4-dihydro-2H-benzo[e][1,2]oxaborinine-8-carboxylic acid] | 100 to 1000 | < 100 | < 100 | < 100 | < 100 |
| O=C(O)CN[C@H]1CC[C@H](CC(=O)N[C@H]2Cc3cccc(C(=O)O)c3OB2O)CC1 [Example 28, (R)-3-(2-(trans-4-(carboxymethylamino)cyclohexyl)acetamido)-2-hydroxy-3,4-dihydro-2H-benzo[e][1,2]oxaborinine-8-carboxylic acid] | 1000 to 10000 | 100 to 1000 | < 100 | < 100 | < 100 |
| O=C(C[C@H]1CC[C@H](N2C=NCC2)CC1)N[C@H]1Cc2cccc(C(=O)O)c2OB1O [Example 29, (R)-3-(2-(trans-4-(4,5-dihydro-1H-imidazol-1-yl)cyclohexyl)acetamido)-2-hydroxy-3,4-dihydro-2H-benzo[e][1,2]oxaborinine-8-carboxylic acid] | 100 to 1000 | < 100 | < 100 | < 100 | < 100 |
| N=CN[C@H]1CC[C@H](CC(=O)N[C@H]2Cc3cccc(C(=O)O)c3OB2O)CC1 [Example 30, (R)-3-(2-(trans-4-formimidamidocyclohexyl)acetamido)-2-hydroxy-3,4-dihydro-2H-benzo[e][1,2]oxaborinine-8-carboxylic acid] | 100 to 1000 | 100 to 1000 | < 100 | < 100 | < 100 |
| O=C(CC1CCCCC1)N[C@H]1Cc2cccc(C(=O)O)c2OB1O [Example 31, (R)-3-(2-cyclohexylacetamido)-2-hydroxy-3,4-dihydro-2H-benzo[e][1,2]oxaborinine-8-carboxylic acid] | 1000 to 10000 | < 100 | < 100 | < 100 | < 100 |
| O=C(C[C@H]1CC[C@H](NCc2ccccn2)CC1)N[C@H]1Cc2cccc(C(=O)O)c2OB1O [Example 32, (R)-2-hydroxy-3-(2-(trans-4-(pyridin-2-ylmethylamino)cyclohexyl)acetamido)-3,4-dihydro-2H-benzo[e][1,2]oxaborinine-8-carboxylic acid] | 100 to 1000 | < 100 | < 100 | < 100 | < 100 |
| O=C(C[C@H]1CC[C@H](NCC2CCNCC2)CC1)N[C@H]1Cc2cccc(C(=O)O)c2OB1O [Example 33, (R)-2-hydroxy-3-(2-(trans-4-(piperidin-4-ylmethylamino)cyclohexyl)acetamido)-3,4-dihydro-2H-benzo[e][1,2]oxaborinine-8-carboxylic acid] | 100 to 1000 | < 100 | < 100 | < 100 | < 100 |
| N=C(N)N1CCC(CN[C@H]2CC[C@H](CC(=O)N[C@H]3Cc4cccc(C(=O)O)c4OB3O)CC2)CC1 [Example 34, (R)-3-(2-(trans-4-((1-carbamimidoylpiperidin-4-yl)methylamino)cyclohexyl)acetamido)-2-hydroxy-3,4-dihydro-2H-benzo[e][1,2]oxaborinine-8-carboxylic acid] | 100 to 1000 | < 100 | < 100 | < 100 | < 100 |
